Results: US8410302B2, “Methoxyimino compounds and fungicide composition comprising same” (Kyung Nong Corporation, priority 2007, dated 2013)

Legend:
Rhizoctonia solani AG-1 = assay: Fungicidal activity against rice sheath blight (RSB) disease, control value; settings: Rhizoctonia solani, AG1, in Oryza sativa, read-out: RSB control value (C.V.)
[1] = system: Pyricularia oryzae Carvara KA301; assay: whole plant or invertebrate; assay type: in vivo; settings: Pyricularia oryzae, read-out: RCB control value (C.V.)
Puccinia recondita = assay: Fungicidal activity against wheat leaf rust (WLR) disease, control value; assay type: in vivo; settings: Puccinia recondita, read-out: WLR control value (C.V.)
Botrytis cinerae = assay: Fungicidal activity against cucumber gray mold rot (CGM) disease, control value; assay type: in vivo; settings: Botrytis, read-out: CGM control value (C.V.)
Phytophthora infestans = assay: whole plant or invertebrate; assay type: in vivo; settings: Phytophthora infestans, in Solanum lycopersicum, read-out: TLB control value (C.V.)
Erysiphae graminis = assay: Fungicidal activity against barley powdery mildew (BPM) disease, control value; assay type: in vivo; settings: 168 h, read-out: BPM control value (C.V.)

Compound	pest or weed control at 2 ppm (Rhizoctonia solani AG-1) [%]	pest or weed control at 10 ppm (Rhizoctonia solani AG-1) [%]	pest or weed control at 50 ppm (Rhizoctonia solani AG-1) [%]	pest or weed control at 100 ppm (Rhizoctonia solani AG-1) [%]	pest or weed control at 2 ppm [1] [%]	pest or weed control at 10 ppm [1] [%]	pest or weed control at 50 ppm [1] [%]	pest or weed control at 100 ppm [1] [%]	pest or weed control at 2 ppm (Puccinia recondita) [%]	pest or weed control at 10 ppm (Puccinia recondita) [%]	pest or weed control at 50 ppm (Puccinia recondita) [%]	pest or weed control at 100 ppm (Puccinia recondita) [%]	pest or weed control at 100 ppm (Botrytis cinerae) [%]	pest or weed control at 10 ppm (Phytophthora infestans) [%]	pest or weed control at 50 ppm (Phytophthora infestans) [%]	pest or weed control at 100 ppm (Phytophthora infestans) [%]	pest or weed control at 2 ppm (Erysiphae graminis) [%]	pest or weed control at 10 ppm (Erysiphae graminis) [%]	pest or weed control at 50 ppm (Erysiphae graminis) [%]	pest or weed control at 100 ppm (Erysiphae graminis) [%]	other results
CO/N=C(/C(=O)OC)c1ccccc1COc1ccc(C=C(Br)Br)cc1C [Example 65, methyl-(E)-2-(2-((4-(2,2-dibromovinyl)-2-methylphenoxy)methyl)phenyl)-2-methoxyiminoacetate]	97	100	100	100	100	100	100	100	100	100	100	100	35	80	100	100	60	95	100	100	pest or weed control at 2 ppm (Phytophthora infestans): 50%
CNC(=O)/C(=N/OC)c1ccccc1COc1ccc(C=C(Br)Br)cc1C [Example 66, (E)-2-(2-((4-(2,2-dibromovinyl)-2-methylphenoxy)methyl)phenyl)-2-methoxyimino-N-methylacetamide]	65	98	100	100	60	90	100	100	95	100	100	100	45	90	98	100	97	100	100	100	pest or weed control at 2 ppm (Phytophthora infestans): 75%
CO/N=C(/C(=O)OC)c1ccccc1COc1cccc(C=C(Br)Br)c1Cl [Example 67, methyl-(E)-2-(2-((3-(2,2-dibromovinyl)-2-chlorophenoxy)methyl)phenyl)-2-methoxyiminoacetate]	100	100	100	100	100	100	100	100	100	100	100	100	85	100	100	100	100	100	100	100	pest or weed control at 50 ppm (Botrytis cinerae): 40%; pest or weed control at 2 ppm (Phytophthora infestans): 99%
CNC(=O)/C(=N/OC)c1ccccc1COc1cccc(C=C(Br)Br)c1Cl [Example 68, (E)-2-(2-((3-(2,2-dibromovinyl)-2-chlorophenoxy)methyl)phenyl)-2-methoxyimino-N-methylacetamide]	100	100	100	100	100	100	100	100	100	100	100	100	70	100	100	100	100	100	100	100	pest or weed control at 50 ppm (Botrytis cinerae): 20%; pest or weed control at 2 ppm (Phytophthora infestans): 100%
CO/N=C(/C(=O)OC)c1ccccc1COc1ccc(C)cc1C=C(Br)Br [Example 69, methyl-(E)-2-(2-((2-(2,2-dibromovinyl)-4-methylphenoxy)methyl)phenyl)-2-methoxyiminoacetate]	100	100	100	100	100	100	100	100	100	100	100	100	60	100	100	100	100	100	100	100	pest or weed control at 2 ppm (Phytophthora infestans): 100%
CNC(=O)/C(=N/OC)c1ccccc1COc1ccc(C)cc1C=C(Br)Br [Example 70, (E)-2-(2-((2-(2,2-dibromovinyl)-4-methylphenoxy)methyl)phenyl)-2-methoxyimino-N-methylacetamide]	100	100	100	100	100	100	100	100	100	100	100	100	50	35	90	100	100	100	100	100	–
CO/N=C(/C(=O)OC)c1ccccc1COc1cc(C=C(Br)Br)ccc1OC [Example 71, methyl-(E)-2-(2-((5-(2,2-dibromovinyl)-2-methoxyphenoxy)methyl)phenyl)-2-methoxyiminoacetate]	65	98	100	100	30	90	100	100	95	100	100	100	65	90	98	100	95	100	100	100	pest or weed control at 2 ppm (Phytophthora infestans): 70%
CNC(=O)/C(=N/OC)c1ccccc1COc1cc(C=C(Br)Br)ccc1OC [Example 72, (E)-2-(2-((5-(2,2-dibromovinyl)-2-methoxyphenoxy)methyl)phenyl)-2-methoxyimino-N-methylacetamide]	75	98	100	100	80	99	100	100	97	100	100	100	79	90	100	100	98	100	100	100	pest or weed control at 2 ppm (Phytophthora infestans): 70%
CO/N=C(/C(=O)OC)c1ccccc1COc1c(C)cccc1C=C(Br)Br [Example 73, methyl-(E)-2-(2-((2-(2,2-dibromovinyl)-6-methylphenoxy)methyl)phenyl)-2-methoxyiminoacetate]	–	–	–	10	70	90	100	100	100	100	100	100	20	10	90	100	15	60	93	95	–
